The supplement of paper PMC10307832

What was measured:
Assay in all cases: relative viability (nuclei count vs DMSO), 5 days (fraction); higher = more cells survive
[1] = compound: CCC1=CN=CN=C1N2CCN(CC2)CC3=NC4=C(N3)C=C(C=C4)C(F)(F)F
Method in brief: (§1)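 Lung cancer cell lines were seeded into 1536-well plates, kept overnight at 37 °C and pinned with five library-drug doses (not always all listed) spaced by √10. After 5 days, nuclei were Hoechst-stained, imaged at 4× and counted with MetaXpress. Viability is treated-well nuclei over vehicle-well nuclei, taken as a median across plates. Plates needed control CV below 25% and at least one doubling.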

[2] = compound: CCn1c(-c2nonc2N)nc2cnc(Oc3cccc(NC(=O)c4ccc(OCCN5CCOCC5)cc4)c3)cc21
Method in brief: as §1

Mirin = compound: N=C1NC(=O)/C(=C/c2ccc(O)cc2)S1 [Mirin]
Method in brief: as §1

Row | Cell Line | relative viability ([1]; 0.04 µM) | relative viability ([1]; 0.1265 µM) | relative viability ([1]; 0.4 µM) | relative viability ([1]; 1.265 µM) | relative viability ([1]; 4 µM) | relative viability ([2]; 0.04 µM) | relative viability ([2]; 0.1265 µM) | relative viability ([2]; 0.4 µM) | relative viability ([2]; 1.265 µM) | relative viability ([2]; 4 µM) | relative viability (Mirin; 0.25 µM) | relative viability (Mirin; 0.7906 µM) | relative viability (Mirin; 2.5 µM) | relative viability (Mirin; 7.906 µM) | relative viability (Mirin; 25 µM)
1 | NCI-H460 | 0.998 | 0.956 | 0.971 | 0.926 | 0.972 | 1.06 | 0.945 | 0.852 | 0.337 | 0.36 | 1.04 | 0.954 | 1.02 | 0.992 | 1.02
2 | NCI-H520 | 0.953 | 0.902 | 0.962 | 0.746 | 1.02 | 1.24 | 1.05 | 0.978 | 0.567 | 0.511 | 1 | 0.882 | 1.02 | 0.808 | 0.709
3 | NCI-H522 | 0.833 | 1.03 | 0.931 | 0.799 | 0.919 | 1.13 | 0.815 | 0.74 | 0.576 | 0.698 | 0.979 | 0.9 | 1.06 | 0.753 | 0.655
4 | NCI-H596 | 1.01 | 0.935 | 0.882 | 0.736 | 1.08 | 1.01 | 0.869 | 0.799 | 0.865 | 0.83 | 0.996 | 1 | 1.02 | 1.02 | 0.973
5 | NCI-H647 | 0.891 | 0.915 | 0.828 | 0.711 | 1.03 | 1.08 | 0.707 | 0.705 | 0.458 | 0.55 | 1.11 | 0.864 | 0.975 | 0.918 | 0.904
6 | NCI-H650 | 0.776 | 0.958 | 0.994 | 0.918 | 0.958 | 1.1 | 0.761 | 0.391 | 0.359 | 0.417 | 1.03 | 0.737 | 0.929 | – | 1.13
7 | NCI-H661 | 0.996 | 0.973 | 0.955 | 0.967 | 0.971 | 0.998 | 0.969 | 0.957 | 0.82 | 0.611 | 0.988 | 1.09 | 1.03 | 0.974 | 1.01
8 | NCI-H727 | 1.05 | 0.909 | 0.981 | 0.603 | 0.91 | 1.21 | 1.15 | 0.767 | 0.986 | 0.947 | 1.14 | 0.918 | 1.06 | 1.27 | 1.15
9 | NCI-H838 | 0.997 | 0.941 | 0.942 | 0.828 | 0.957 | 0.854 | 0.517 | 0.409 | 0.406 | 0.319 | 0.999 | 0.93 | 1.02 | 1.02 | 0.959
10 | NCI-H1299 | 1.04 | 1.01 | 0.986 | 1.01 | 1.01 | 1.03 | 0.931 | 0.84 | 0.767 | 0.681 | 0.999 | 1.09 | 1.03 | 1 | 1.16
11 | NCI-H1355 | 1.01 | 0.935 | 0.918 | 0.931 | 1.04 | 1.04 | 1 | 0.776 | 0.632 | 0.487 | 0.997 | 0.982 | 0.949 | 0.942 | 1.08
12 | NCI-H1395 | 0.837 | 0.86 | 0.943 | 0.769 | 0.892 | 1.13 | 0.837 | 0.769 | 0.469 | 0.563 | 0.948 | – | 0.964 | 0.925 | 0.841
